What was measured:
[1] = Particle analysis of MMP selective gold nanosensor (TEM and light scattering); format: physicochemical
Protocol: For the gold nanoparticle derivatives prepared in Example 1-3, the size of nanoparticle was measured using transmission electron microcopy (TEM) and light scattering (Brookhaven Instrument).

[2] = target: T1, MMP-2 (Homo sapiens, UniProt P08253); test: Fluorescence exhibition due to enzyme degradation of gold nanosensor by activated MMP-2 (96-well, Kodak Image Station); format: biochemical; conditions: 37° C., 2 hours
T1 sequence (P08253 110-660): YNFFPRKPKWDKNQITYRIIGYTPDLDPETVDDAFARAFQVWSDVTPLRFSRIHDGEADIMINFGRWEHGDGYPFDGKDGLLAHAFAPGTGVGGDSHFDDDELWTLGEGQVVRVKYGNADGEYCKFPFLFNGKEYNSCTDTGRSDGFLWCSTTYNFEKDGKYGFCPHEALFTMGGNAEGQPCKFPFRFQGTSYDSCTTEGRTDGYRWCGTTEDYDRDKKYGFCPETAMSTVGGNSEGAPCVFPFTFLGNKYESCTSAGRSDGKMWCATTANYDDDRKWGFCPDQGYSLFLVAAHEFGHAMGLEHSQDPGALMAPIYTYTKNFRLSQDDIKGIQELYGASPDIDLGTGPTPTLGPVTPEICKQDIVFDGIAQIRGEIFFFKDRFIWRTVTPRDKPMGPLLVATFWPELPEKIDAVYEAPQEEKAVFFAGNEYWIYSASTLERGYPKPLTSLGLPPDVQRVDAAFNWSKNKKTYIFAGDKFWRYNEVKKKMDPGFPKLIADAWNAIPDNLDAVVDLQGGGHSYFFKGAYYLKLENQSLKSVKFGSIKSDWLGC
Protocol: (§1) A gold nanosensor was reacted respectively with MMP-2 and MMP-13 each activated in the 96-well, a scramble peptide (i.e., a peptide having the same amino acid contained structure but having different sequence so as not to act as a substrate with respect to a specific enzyme) and MMP-2/MMP-2 inhibitor at temperature of 37° C. for 2 hours, and thereafter a fluorescence exhibition due to the enzyme degradation was observed.
(§2) First, in order to activate the MMP-2 and MMP-13, the MMPs were added into a TCNB mixture (containing 0.1M of tris, 5 mM of calcium chloride, 200 mM of NaCl and 0.1% of Brij) having 2.5 mmol/L of p-aminophenyl mercuric acid added thereto, so as to be reacted at temperature of 37° C. for 1 hour. The activated MMP-2 and MMP-13 were reacted with the gold nanosensor in 200 μL of mixture in each well at temperature of 37° C. for 2 hours, and thereafter the degree of the fluorescence was observed using Kodak Image Station 4000MM Digital Imaging System built in a […] (Charge Coupled Device) camera.
The MMP gold nanosensor was used to quantitatively analyze the concentration of MMP-2 protease. In more detail, according to the same experimental way to that in Example 2-2, each of activated MMP-2s having concentrations of 0, 1.4, 3.5, 7 and 14 nmol/L, respectively, was added to the MMP-2 gold nanosensor to be reacted at temperature of 37° C. for 2 hours, and then the degree of the fluorescence was observed using the Kodak Image Station 4000MM Digital Imaging System.

[3] = target: MMP-13 (Homo sapiens, UniProt P45452); test: Fluorescence exhibition due to enzyme degradation of gold nanosensor by activated MMP-13 (96-well, Kodak Image Station); format: biochemical; conditions: state (c), 37° C., 2 hours
Protocol: as §1, §2

[4] = test system: Invasive squamous cell carcinoma (SCC7); test: Real-time imaging of cancerous tissue in cancer animal models; format: in vivo, C3H/HeN mouse; conditions: 100 ul
Protocol: Invasive squamous cell carcinoma (SCC7) was injected into C3H/HeN mouse to create a cancer animal model. For the cancerous tissue with a size of more than 5 mm, the MMP-2 gold nanosensor was injected into the cancerous tissue, to thereafter estimate the possibility of imaging the cancer cell.
The invasive squamous cell carcinoma (SCC7) is known as a cancer cell expressing a great amount of MMP-2. The experiment was performed with respect to three animal test groups including a normal mouse having MMP-2 gold nanosensor (100 ul, 10 nM/mL) injected thereinto and a cancer mouse also having MMP-2 gold nanosensor (100 ul, 10 nM/mL) injected thereinto, and a cancer mouse having both MMP-2 gold sensor and MMP-2 inhibitor injected thereinto.

[5] = test system: cancerous tissue overexpressing MMP-2 (SCC7); test: Fluorescence of gold nanosensor in removed cancerous tissue; format: in vivo, C3H/HeN mouse
Protocol: Depending on whether the MMP-2 inhibitor was injected into the cancerous tissue overexpressing MMP-2, the fluorescence of the MMP-2 gold nanosensor was observed.

Cy5.5-GPLGLFARC-Gold [MMP selective gold nanosensor]
size of nanoparticle (average) [1]: approximately 20 nm
fluorescence, MMP-2 added ([2]; MMP-2 added): bright fluorescence was exhibited
fluorescence versus MMP-2 concentration ([2]; activated MMP-2 at 0, 1.4, 3.5, 7 and 14 nmol/L): increased in proportion to the concentration of the added MMP-2 enzyme
fluorescence, MMP-2 not added ([2]; state (a), no MMP-2): fluorescence quenched
fluorescence in the reaction with MMP-2 inhibitor ([2]; state (e), MMP-2/MMP-2 inhibitor): no fluorescence is emitted
fluorescence with respect to MMP-13 [3]: rarely exhibits fluorescence
fluorescence in mouse with cancer cell ([4]; Au NP (SCC7 tumor), 10 nM/mL injected into cancerous tissue): emitted high fluorescence as time elapses
fluorescence in normal mouse ([4]; normal mouse without the cancer cell, 10 nM/mL injected): did not exhibit fluorescence
fluorescence in removed cancerous tissue treated with MMP-2 inhibitor ([5]; cancerous tissue (+inh)): remarkably low fluorescence
fluorescence in removed cancerous tissue not treated with MMP-2 inhibitor ([5]; cancerous tissue (−inh)): remarkably high fluorescence

From patent US8551727B2, “Gold nanoparticle based protease imaging probes and use thereof” (Korea Institute of Science and Technology, priority 2007, dated 2013)
